Measured values as given in patent US12503510B2, “Small shedding blocking agents” (BIOND BIOLOGICS LTD., priority 2019, dated 2025).
Read-outs that look alike come from different tables or passages of the source.

What was measured:
human PBMCs [1] = experiment: Lymphocyte clustering of SEB stimulated PBMCs (IncuCyte); format: cell-based; details: SEB 1 ng/mL
Experimental: Next, human PBMCs were stimulated with SEB (1 ng/mL) without or in the presence of recombinant human CD28. Human IgG was used as control. Lymphocyte clustering, a hallmark of immune activation was monitored using the IncuCyte® S3 Live-Cell, with pictures taken every 12 hours. […] It is well established that during in-vitro immune response antigen presenting cells (APC) cluster with one another and with other cell types, and clustering is essential for the antigen specific activation of resting lymphocytes.

[2] = system: H22 hepatocellular carcinoma cells; experiment: H22 syngeneic mouse model; format: in vivo; details: Balb/c mice, H22 allograft, with anti-PD-1
[3] = system: autologous monocytes and CD3 T cells; experiment: Autologous monocytes CD3 MLR with CMV peptide; format: cell-based, human
Experimental: The mixed cells were stimulated for 5 days with CMV peptide (0.5 μg/mL) with and without increasing concentrations of recombinant human sCD28.
The MLR was run as before only with and without sCD28 and with and without an anti-PD1 antibody (MK3475, 5 μg/mL) (FIG. 8B).

SCC-25 cells = experiment: Co-culture of SCC-25 cancer cell line with monocytes in trans-well assay; format: cell-based, human
Experimental: Co-culture of SCC-25 cancer cell line with monocytes in trans-well based assay—4×10^4 SCC-25 cells were plated on the bottom of 24 well plate with 1×10^5 monocytes placed on cell culture insert (Millipore, Cat. No. MCHT241148) with or without indicated treatments for 4 days in starvation media without serum.
Next, cells of the head and neck cancer cell line SCC-25 were incubated either alone or with monocytes in a trans-well assay. SCC-25 cells grown alone were administered IL-6 as a positive control, and indeed cell proliferation, as measured by MTT (FIG. 9C, upper) and as measured by % confluency (FIG. 9C, lower), was increased.

isolated PBMCs = experiment: CMV stimulated PBMC with constant sCD28 and CD80-Fc titration; format: cell-based, human; details: CMV peptide 3 days
human PBMCs [4] = experiment: SEB or CMV stimulated PBMCs with anti-PD1 and soluble CD28; format: cell-based
human PBMCs [5] = experiment: CMV stimulation of PBMCs with ectopic recombinant human CD28 or CTLA-4, cytokine ELISA/multiplex; format: cell-based; details: CMV 0.5 μg/mL
isolated human monocytes = experiment: Stimulation of monocytes with recombinant human CD28 (IDO, PD-L1, PD-L2); format: cell-based; details: IFNγ 1000 U/mL, recombinant human CD28 10 μg/mL
Experimental: Stimulation of monocytes with recombinant human CD28—1.5×10^6 monocytes were plated at 24 well plate in RPMI medium with […] IFN gamma (R&D system, Cat. No. 285-IF) in the presence of recombinant human CD28 at the indicated concentrations for 48 hrs. The generated cell populations were tested for the indicated phenotypes by FACS analysis of relevant markers (IDO, PD-L1 and PD-L2) and by analysis of secretion of characteristic cytokines (IL-6).
The enzyme indoleamine 2,3-dioxygenase (IDO) has been implicated in immune modulation through its ability to catabolize the essential amino acid Tryptophan. It is expressed by different immune cells and also by many cancer cells. Tryptophan shortage inhibits T lymphocytes maturation and proliferation, while Kynurenine, the end product of tryptophan catabolism, is also known as immunosuppressive metabolite that promotes immune tolerance in various physiological and pathophysiological conditions. To test the effect of sCD28 on IDO, isolated human monocytes were stimulated for 48 hr with IFNγ (1000 U/mL) in the presence of control human IgG or with recombinant human CD28 (10 μg/mL). After incubation, the monocytes were stained intracellularly for human IDO (FIG. 7E). To facilitate intracellular staining the cells were fixed and permeabilized with BD Cytofix/Cytoperm Buffer Kit.
In order to elucidate the mechanism by which sCD28 inhibits the pro-activation effect of anti-PD-1 therapy, the expression of PD-1 ligands on immune cells in the presence of sCD28 was examined. Isolated human monocytes were stimulated for 48 hours with IFNγ (1000 U/mL) in the presence of control human IgG (10 μg/mL) or with recombinant human CD28 (10 μg/mL). After incubation the monocytes were stained for PD-L1 (FIG. 8C, left) and PD-L2 (FIG. 8C, right).

[6] = system: isolated CD3 human T cells; experiment: T cells stimulation with OKT3 and CD80-Fc, IFN gamma; format: cell-based; details: OKT3 2 μg/mL
Experimental: T cells stimulation with OKT3—0.1×10^6 isolated CD3 T cells (from healthy donors) were stimulated with indicated amount of anti-CD3 clone OKT3 for 48-72 hr at 37° C. When stated recombinant human CD80-Fc (2 μg/mL, R&D system) was added in soluble form. Antibodies or VHHs to CD28 or controls were added at the indicated concentration in soluble form.
CD80 is one of the two main ligands for mCD28 along with CD86. The extracellular domain of CD80 fused to an Fc moiety has been used as an immune stimulatory molecule and is under investigation as a cancer therapy. In order to examine the effect of sCD28 on CD80-Fc efficacy, isolated CD3 human T cells were stimulated with plate bound anti-CD3 antibody (OKT3, 2 μg/mL) in the presence of 2 μg/mL soluble recombinant human CD80-Fc.

PBMC of cancer patients = experiment: SEB stimulated PBMC of cancer patients with sCD28 and MK-3475; format: cell-based, human; details: SEB 5 ng/mL, 3 days
human PBMCs [7] = system: human PBMCs
human PBMCs [8] = experiment: Soluble CD28 generation in SEB or CMV stimulated PBMCs, human CD28 ELISA; format: cell-based; details: SEB 1 ng/mL; inhibitor 0.01-1 μM
Experimental: Protease Inhibitors—Protease inhibitors were added at the indicated concentrations at the start of each experiment. In week long assays another portion of the inhibitors was added after 3 days at the final concentration. Protease inhibitors used are TAPI-1 (Cayman, Cat. No. 18505), GM6001 (Santa Cruz, Cat. No. SC-203979), TMI-1 (Sigma, Cat. No. PZ0336) and GI254023X (Sigma, Cat. No. SML0789). Where mentioned the protease cocktail was composed with a mixture of TAPI-1 and GM6001 at equimolar ratio.

[9] = CMV peptide 0.5 μg/mL, 5 days, increasing sCD28

For “sCD28: recombinant human CD28 lacking the transmembrane and cytoplasmic domains”, the lymphocyte cluster formation (human PBMCs [1]) was “diminish the amount and size of cluster formation”, the “effect on anti-PD-1 therapy” value [2] was “nearly completely abrogated in two of the mice” and the IFN gamma secretion [3, 9] was “inhibit IFN gamma secretion”. The IL-1B secretion [3, 9] was “increasing the secretion”, the IL-10 secretion [3, 9] was “increasing the secretion” and the TGF beta secretion [3, 9] was “increasing the secretion”. The “effect of MK-3475 in the presence of sCD28” value ([3]; MK3475 5 μg/mL with sCD28) was “significantly reduced”, the “cell proliferation (MTT and % confluency)” value (SCC-25 cells; coculture with monocytes) was “by far the greatest increase” and the “CD80-Fc needed for immune response in presence of sCD28” value (isolated PBMCs) was “an increased amount of CD80-Fc was required”. The “effect on MK-3475 immune activation” value (human PBMCs [4]; sCD28 2 and 10 μg/mL combined with MK3475 5 μg/mL) was “abrogated completely this immune activation effect”, the IFN gamma secretion (human PBMCs [5]) was “dose-dependent inhibition of IFN gamma secretion” and the IL-6 secretion (human PBMCs [5]) was “increase IL-6 cytokine secretion”. The interleukin-10 secretion (human PBMCs [5]) was “elevation”, the “PD-L1 expression on monocytes” value (isolated human monocytes; 48 hours) was “upregulated” and the “PD-L2 expression on monocytes” value (isolated human monocytes; 48 hours) was “upregulated”. The “IDO expression in monocytes” value (isolated human monocytes; 48 hr) was “strongly enhanced IDO expression”, the “effect on CD80-Fc secondary activation” value ([6]; constant CD80-Fc, titration of sCD28) was “counteracted the secondary activation effect of the CD80-Fc” and the “effect on MK-3475” value (PBMC of cancer patients; combination) was “rendered the effect of MK-3475 nonexistent”. For the same molecule, the “concentration of human IFN gamma in the supernatant” value (PBMC of cancer patients; with or without MK-3475) was “greatly reduced”.

With CC#CCOc1ccc(S(=O)(=O)N2CCSC(C)(C)[C@@H]2C(=O)NO)cc1 [TMI-1] the “viability of the immune cells (MTT)” value (human PBMCs [7]) was “no significant difference”.

With “IL-6: cytokine given to SCC-25 cells as a positive control [reference compound]” the “cell proliferation (MTT and % confluency)” value (SCC-25 cells; SCC-25 cells grown alone, positive control) was “increased”.

With CNC(=O)[C@@H](NC(=O)[C@H](CCCc1ccccc1)[C@H](C)N(O)C=O)C(C)(C)C [GI254023X] the “sCD28 release from activated immune cells” value (human PBMCs [8]) was “almost complete inhibition of sCD28 release” and the “viability of the immune cells (MTT)” value (human PBMCs [7]; SEB 1 ng/mL, with vs without ADAM inhibitor) was “no significant difference”.

For “Pembrolizumab [MK-3475, reference compound]”, the IFN gamma secretion ([3]; MK3475 5 μg/mL) was “increased IFN gamma secretion”, the TGF beta secretion ([3]; MK3475 5 μg/mL) was “decreased TGF beta secretion” and the “proinflammatory cytokine secretion (IFN gamma and IL-2)” value (human PBMCs [4]; MK3475 5 μg/mL, 3 days) was “increased proinflammatory cytokine secretion”.

B1: CD80-Fc: extracellular domain of CD80 fused to an Fc moiety (protein)
chain: VIHVTKEVKEVATLSCGHNVSVEELAQTRIYWQKEKKMVLTMMSGDMNIWPEYKNRTIFDITNNLSIVILALRPSDEGTYECVVLKYEKDAFKREHLAEVTLSVKADFPTPSISDFEIPTSNIRRIICSTSGGFPEPHLSWLENGEELNAINTTVSQDPETELYAVSSKLDFNMTTNHSFMCLIKYGHLRVNQTFNWNTTKQEHFPDN
modifications: left off: a dimerising Fc or GST
notes: extracellular domain of CD80 fused to an Fc moiety
B1 was tested, and the IFN gamma secretion ([6]; CD80-Fc 2 μg/mL) was “increased IFN gamma secretion”.
